Structures can show the parent of a compound that is named as a salt. A value given as a limit tells only on which side of the number the result lay.

The record followed here is US11492335B2, “Aryl or heteroaryl triazolone derivatives or salts thereof, or pharmaceutical compositions comprising the same” (YUHAN CORPORATION, priority 2018, dated 2022).

Holding throughout (format): biochemical
The target of experiment [1] is T1, recombinant human DAO (diamine oxidase) (Homo sapiens, UniProt P19801).
T1 construct: purchased R&D systems
T1 sequence (P19801 20-751): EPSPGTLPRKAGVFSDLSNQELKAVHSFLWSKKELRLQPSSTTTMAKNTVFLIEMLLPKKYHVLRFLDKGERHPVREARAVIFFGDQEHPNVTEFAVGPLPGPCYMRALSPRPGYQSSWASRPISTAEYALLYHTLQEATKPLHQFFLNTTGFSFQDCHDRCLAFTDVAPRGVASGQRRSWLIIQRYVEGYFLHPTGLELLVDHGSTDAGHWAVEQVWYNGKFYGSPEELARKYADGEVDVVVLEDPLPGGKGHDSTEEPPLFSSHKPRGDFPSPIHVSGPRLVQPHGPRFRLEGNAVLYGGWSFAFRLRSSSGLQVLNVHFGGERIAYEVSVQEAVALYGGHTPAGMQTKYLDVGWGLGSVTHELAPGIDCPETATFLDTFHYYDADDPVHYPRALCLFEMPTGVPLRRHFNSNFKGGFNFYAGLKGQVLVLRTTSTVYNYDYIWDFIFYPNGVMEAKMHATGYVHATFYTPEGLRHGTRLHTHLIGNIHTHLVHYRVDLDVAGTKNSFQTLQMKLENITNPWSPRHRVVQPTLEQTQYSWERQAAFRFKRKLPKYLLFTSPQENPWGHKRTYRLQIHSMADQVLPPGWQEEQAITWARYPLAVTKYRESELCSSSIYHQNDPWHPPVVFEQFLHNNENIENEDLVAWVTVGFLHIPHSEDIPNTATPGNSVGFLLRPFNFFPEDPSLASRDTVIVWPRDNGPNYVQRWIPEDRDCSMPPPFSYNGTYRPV
The experiment can be described thus: Activity on recombinant human DAO, Amplex Red method, 1 mM putrescine substrate. Particulars: recombinant human DAO, 1 mM putrescine; * = between 10 and 100 nM, ** = between 300 and 1000 nM; read-out: Inhibitory Activity (IC50, nM) DAO. The method, boiled down: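 Inhibition of recombinant human DAO (diamine oxidase, R&D systems) was assessed with the Amplex Red Hydrogen Peroxide Assay Kit. Hydrogen peroxide produced from 1 mM putrescine was detected through an HRP-coupled reaction that converts Amplex Red into fluorescent resorufin, read at 544 nm excitation and 590 nm emission. IC50 values came from four-parameter logistic fits in GraphPad Prism.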

A further experiment has as its target T2, recombinant human VAP-1 (Homo sapiens, UniProt Q16853).
T2 construct: purchased R&D systems
T2 sequence (Q16853 1-763): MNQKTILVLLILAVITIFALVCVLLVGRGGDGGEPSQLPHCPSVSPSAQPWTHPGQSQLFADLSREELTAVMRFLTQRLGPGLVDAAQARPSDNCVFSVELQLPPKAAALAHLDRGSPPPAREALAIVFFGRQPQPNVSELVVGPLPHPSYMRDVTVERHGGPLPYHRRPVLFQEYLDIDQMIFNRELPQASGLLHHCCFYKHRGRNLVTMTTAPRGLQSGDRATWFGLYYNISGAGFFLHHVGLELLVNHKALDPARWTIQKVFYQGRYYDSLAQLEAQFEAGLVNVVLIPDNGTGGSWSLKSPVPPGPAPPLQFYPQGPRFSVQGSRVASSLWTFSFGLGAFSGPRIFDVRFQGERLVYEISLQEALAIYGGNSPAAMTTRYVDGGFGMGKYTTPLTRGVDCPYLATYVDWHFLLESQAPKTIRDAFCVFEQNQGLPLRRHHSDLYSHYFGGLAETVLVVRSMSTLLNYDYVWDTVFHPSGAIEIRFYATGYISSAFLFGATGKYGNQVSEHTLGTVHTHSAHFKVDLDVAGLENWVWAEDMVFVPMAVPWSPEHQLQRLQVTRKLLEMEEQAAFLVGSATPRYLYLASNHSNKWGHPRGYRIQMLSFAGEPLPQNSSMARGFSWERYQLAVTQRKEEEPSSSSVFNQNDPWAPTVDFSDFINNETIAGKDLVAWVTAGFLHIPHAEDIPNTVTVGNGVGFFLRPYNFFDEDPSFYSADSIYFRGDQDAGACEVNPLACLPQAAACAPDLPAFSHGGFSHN
Briefly: Activity on recombinant human VAP-1, Amplex Red HRP-coupled hydrogen peroxide assay, benzylamine substrate. The settings on record: recombinant human VAP-1, benzylamine substrate, 30 min preincubation at 37° C.; read-out: Inhibitory Activity (IC50, nM) human VAP-1. In outline:
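Compounds were preincubated with purified enzyme in 50 mM sodium phosphate pH 7.4 at 37 °C for 30 min, then 200 uM Amplex Red, 1 mM benzylamine and 1 U/mL HRP were added. Resorufin fluorescence (ex 544/em 590 nm) was followed over 1-2 h; IC50 came from 4-parameter fits of signal-rate inhibition.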

Experiment [2] addresses T3, recombinant human MAO-B (monoamine oxidase-B) (Homo sapiens, UniProt P27338).
T3 construct: purchased Sigma-Aldrich
T3 sequence (P27338 1-520): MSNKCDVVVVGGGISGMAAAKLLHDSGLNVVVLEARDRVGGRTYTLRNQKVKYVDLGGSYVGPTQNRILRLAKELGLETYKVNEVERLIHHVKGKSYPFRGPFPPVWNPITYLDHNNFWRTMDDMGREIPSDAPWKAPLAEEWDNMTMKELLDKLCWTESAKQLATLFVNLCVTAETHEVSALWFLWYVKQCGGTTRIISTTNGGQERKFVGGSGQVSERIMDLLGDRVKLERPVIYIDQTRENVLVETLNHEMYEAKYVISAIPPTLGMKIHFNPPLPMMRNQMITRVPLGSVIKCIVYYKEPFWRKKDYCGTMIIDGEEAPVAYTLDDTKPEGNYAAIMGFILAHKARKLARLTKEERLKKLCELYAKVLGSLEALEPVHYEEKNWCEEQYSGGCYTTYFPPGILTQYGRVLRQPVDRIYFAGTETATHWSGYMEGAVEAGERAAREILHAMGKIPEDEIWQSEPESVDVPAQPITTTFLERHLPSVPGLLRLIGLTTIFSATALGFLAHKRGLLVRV
The experiment can be described thus: Activity on recombinant human MAO-B, Amplex Red method, 1 mM benzylamine substrate. Particulars: 1 mM benzylamine, read-out: Inhibitory Activity (IC50, nM) MAO-B. In outline:
(§1)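 8-point, 1:3 dose-response, four-parameter logistic IC50 from reduction in fluorescence rate versus DMSO control. HRP/Amplex Red detection of H2O2 (ex 544, em 590 nm) after 30 min, 37 °C compound–enzyme preincubation in pH 7.4 phosphate buffer. MAO-A substrate: 0.5 mM tyramine; MAO-B: 1 mM benzylamine.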

For experiment [3], the target named is T4, recombinant human MAO-A (monoamine oxidase-A) (Homo sapiens, UniProt P21397).
T4 construct: purchased Sigma-Aldrich
T4 sequence (P21397 1-527): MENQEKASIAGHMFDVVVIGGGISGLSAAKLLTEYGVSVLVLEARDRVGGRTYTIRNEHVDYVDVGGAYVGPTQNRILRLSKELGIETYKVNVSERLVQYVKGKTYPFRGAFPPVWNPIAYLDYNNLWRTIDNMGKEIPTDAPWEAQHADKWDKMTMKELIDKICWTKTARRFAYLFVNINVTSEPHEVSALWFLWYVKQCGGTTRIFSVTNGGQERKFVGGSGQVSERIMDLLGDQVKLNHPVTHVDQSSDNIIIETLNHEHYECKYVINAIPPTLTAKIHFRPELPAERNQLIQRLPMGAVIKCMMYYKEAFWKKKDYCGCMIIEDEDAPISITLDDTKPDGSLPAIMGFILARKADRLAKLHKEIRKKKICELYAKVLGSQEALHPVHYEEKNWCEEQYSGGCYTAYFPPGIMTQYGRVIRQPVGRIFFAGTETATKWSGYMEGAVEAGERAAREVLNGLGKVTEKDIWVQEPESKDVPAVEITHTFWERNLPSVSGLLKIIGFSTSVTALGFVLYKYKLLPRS
Briefly: Activity on recombinant human MAO-A, Amplex Red method, 0.5 mM tyramine substrate. The settings on record: 0.5 mM tyramine, read-out: Inhibitory Activity (IC50, nM) MAO-A. In outline: as §1

Regarding `Cc1cc(-c2ccc(S(C)(=O)=O)cc2)cnc1-n1cnn(C/C(=C/F)CN)c1=O` [Example 133, 2-[(2E)-2-(aminomethyl)-3-fluoroprop-2-en-1-yl]-4-{3-methyl-5-[4-(methylsulfonyl)phenyl]pyridin-2-yl}-2,4-dihydro-3H-1,2,4-triazol-3-one hydrochloride], the IC50 in experiment [1] is 220 nM; on recombinant human VAP-1, 0.84 nM; in experiment [2] it was more than 10000 nM; in experiment [3], more than 100000 nM.

For `CC(=O)Nc1ccc(-c2cnc(-n3cnn(C/C(=C/F)CN)c3=O)c(C)c2)cc1` [Example 134, N-[4-(6-{1-[(2E)-2-(aminomethyl)-3-fluoroprop-2-en-1-yl]-5-oxo-1,5-dihydro-4H-1,2,4-triazol-4-yl}-5-methylpyridin-3-yl)phenyl]acetamide hydrochloride], the IC50 in experiment [1] was 1200 nM; at recombinant human VAP-1, 0.55 nM; in experiment [2], more than 10000 nM; in experiment [3], more than 100000 nM.

On to `Cc1cc(-c2cccc(-c3nnc[nH]3)c2)cnc1-n1cnn(C/C(=C/F)CN)c1=O` [Example 137, 2-[(2E)-2-(aminomethyl)-3-fluoroprop-2-en-1-yl]-4-{3-methyl-5-[3-(4H-1,2,4-triazol-3-yl)phenyl]pyridin-2-yl}-2,4-dihydro-3H-1,2,4-triazol-3-one], for which the IC50 in experiment [1] amounted to 120 nM; at recombinant human VAP-1 it was 0.5 nM; in experiment [2], 3790 nM; in experiment [3] it was 34000 nM.

For the compound `Cc1cc(-c2ccc(-c3cnon3)cc2)cnc1-n1cnn(C/C(=C/F)CN)c1=O` [Example 138, 2-[(2E)-2-(aminomethyl)-3-fluoroprop-2-en-1-yl]-4-{3-methyl-5-[4-(1,2,5-oxadiazol-3-yl)phenyl]pyridin-2-yl}-2,4-dihydro-3H-1,2,4-triazol-3-one hydrochloride], the IC50 in experiment [1] worked out at 240 nM; on recombinant human VAP-1, 0.7 nM; in experiment [2] it was 1100 nM; in experiment [3] it was 84000 nM.

With `Cc1cc(-c2ccc(-c3ncon3)cc2)cnc1-n1cnn(C/C(=C/F)CN)c1=O` [Example 139, 2-[(2E)-2-(aminomethyl)-3-fluoroprop-2-en-1-yl]-4-{3-methyl-5-[4-(1,2,4-oxadiazol-3-yl)phenyl]pyridin-2-yl}-2,4-dihydro-3H-1,2,4-triazol-3-one], the IC50 in experiment [1] is 370 nM; at recombinant human VAP-1, 0.53 nM; in experiment [2] it was 394 nM; in experiment [3], more than 100000 nM.

As for `Cc1cc(-c2cccc(-c3ncon3)c2)cnc1-n1cnn(C/C(=C/F)CN)c1=O` [Example 140, 2-[(2E)-2-(aminomethyl)-3-fluoroprop-2-en-1-yl]-4-{3-methyl-5-[3-(1,2,4-oxadiazol-3-yl)phenyl]pyridin-2-yl}-2,4-dihydro-3H-1,2,4-triazol-3-one], the IC50 in experiment [1] stood at 13000 nM; at recombinant human VAP-1 it was 0.79 nM; in experiment [2] it was 3100 nM; in experiment [3] it was 3400 nM.

On to `Cc1cc(-c2ccc(-c3noc(C4CC4)n3)cc2)cnc1-n1cnn(C/C(=C/F)CN)c1=O` [Example 141, 2-[(2E)-2-(aminomethyl)-3-fluoroprop-2-en-1-yl]-4-{5-[4-(5-cyclopropyl-1,2,4-oxadiazol-3-yl)phenyl]-3-methylpyridin-2-yl}-2,4-dihydro-3H-1,2,4-triazol-3-one hydrochloride], for which the half-maximal inhibitory concentration (IC50) in experiment [1] is 110 nM; at recombinant human VAP-1, 0.88 nM; in experiment [2], 7090 nM; in experiment [3], more than 100000 nM.

Consider `Cc1cc(-c2ccc(-c3noc(C(C)C)n3)cc2)cnc1-n1cnn(C/C(=C/F)CN)c1=O` [Example 142, 2-[(2E)-2-(aminomethyl)-3-fluoroprop-2-en-1-yl]-4-(3-methyl-5-{4-[5-(propan-2-yl)-1,2,4-oxadiazol-3-yl]phenyl}pyridin-2-yl)-2,4-dihydro-3H-1,2,4-triazol-3-one hydrochloride], for which the IC50 is 57 nM in experiment [1], 0.63 nM at recombinant human VAP-1, 4720 nM in experiment [2] and more than 100000 nM in experiment [3].

As for `Cc1cc(-c2cccc(-c3noc(C(C)C)n3)c2)cnc1-n1cnn(C/C(=C/F)CN)c1=O` [Example 143, 2-[(2E)-2-(aminomethyl)-3-fluoroprop-2-en-1-yl]-4-(3-methyl-5-{3-[5-(propan-2-yl)-1,2,4-oxadiazol-3-yl]phenyl}pyridin-2-yl)-2,4-dihydro-3H-1,2,4-triazol-3-one hydrochloride], the IC50 was found to be 12 nM in experiment [1], 0.43 nM on recombinant human VAP-1, 5340 nM in experiment [2] and 112000 nM in experiment [3].

With `Cc1cc(-c2ccc(N3CCNCC3)cc2)cnc1-n1cnn(C/C(=C/F)CN)c1=O` [Example 145, 2-[(2E)-2-(aminomethyl)-3-fluoroprop-2-en-1-yl]-4-{3-methyl-5-[4-(piperazin-1-yl)phenyl]pyridin-2-yl}-2,4-dihydro-3H-1,2,4-triazol-3-one hydrochloride], the IC50 in experiment [1] is 13000 nM; on recombinant human VAP-1, 0.9 nM; in experiment [2], more than 10000 nM; in experiment [3], more than 100000 nM.

Usually IC50 stands for the midpoint of a concentration-inhibition curve.
